In paper PMC7837216, “ISRIB Blunts the Integrated Stress Response by Allosterically Antagonising the Inhibitory Effect of Phosphorylated eIF2 on eIF2B” (Molecular Cell, 2021):

Key:
[1] = target: T1, eIF2B (decamer; ISRIB pocket formed by the β- and δ-subunits) (Homo sapiens, UniProt P49770+Q9UI10); assay: fluorescence polarization, kinetic displacement by unlabelled ISRIB (koff); assay type: binding; design: gene EIF2B2; purified recombinant human eIF2B decamer; with eIF2Bβ (EIF2B2), with eIF2Bα, γ, ε in the decamer
[2] = target: T1, eIF2B (decamer; ISRIB pocket formed by the β- and δ-subunits); assay: FP competition with FAM-ISRIB; BLI (ISRIB-induced dissociation of eIF2B from P-eIF2α-NTD); assay type: binding; design: gene EIF2B2; purified recombinant human eIF2B decamer; with eIF2Bβ (EIF2B2), with eIF2Bα, γ, ε in the decamer; P-eIF2α-NTD immobilised in the BLI assay

FAM-ISRIB
fluorescence polarization, kinetic displacement by unlabelled ISRIB (koff) [1]: 0.0123 s⁻¹

O=C(COc1ccc(Cl)cc1)N[C@H]1CC[C@H](NC(=O)COc2ccc(Cl)cc2)CC1 [ISRIB]
EC50 [2]: 1.8 nM
